Test results as given in patent US20170216421A1, “MANUFACTURING OF MULTI-DOSE INJECTION READY DENDRITIC CELL VACCINES, COMBINATION THERAPIES FOR BLOCKING HER2 AND HER3, AND ESTROGEN RECEPTOR POSITIVE HER2 BREAST RECEPTOR POSITIVE HER2 BREAST CANCER THERAPY” (THE TRUSTEES OF THE UNIVERSITY OF PENNSYLVANIA, priority 2015, published 2017).

How the values were obtained:
[1] = system: MCF7 (HER2^neg 2+/ER^pos); assay: Alamar Blue metabolic activity assay; type: cell-based, human; conditions: 72 hours
Protocol: (§1) Breast cancer cell lines, SKBR3 (HER2^pos/ER^neg) and MCF7 (HER2^neg 2+/ER^pos), were treated with Th1 cytokines (IFNγ and TNFα), a tamoxifen metabolite (4-hydroxytamoxifen, “4HT”), or both for 72 hours. Metabolic activity was measured via Alamar Blue assay.

SKBR3 (HER2^pos/ER^neg) = assay: Alamar Blue metabolic activity assay; type: cell-based, human; conditions: 72 hours
Protocol: as §1

[2] = system: BRAF^V600EPTEN^−/− melanoma; assay: Transplantable melanoma model: tumor growth and survival; type: in vivo, mice; conditions: administered alone
Protocol: A transplantable BRAF^V600EPTEN^−/− melanoma model was developed in the C57Bl/6 background. DC1 were generated from bone marrow precursors using Flt3, IL-6, GM-CSF, IL-4, CpG and LPS, and pulsed with class I BRAF^V600E peptide. In addition to untreated and ovalbumin-DC1 controls, BRAF^V600E-DC1 (2× weekly injections) and PLX were administered alone or in designated combinations to tumor-bearing mice (n=10 each). Tumor growth and survival were determined.

Compound | anti-tumor activity / metabolic activity [1] | anti-tumor activity / metabolic activity (SKBR3 (HER2^pos/ER^neg)) | median survival [2]
4-hydroxytamoxifen [4HT] | did not increase anti-tumor activity | not in response to anti-estrogen treatment | 
CCCS(=O)(=O)Nc1ccc(F)c(C(=O)c2c[nH]c3ncc(-c4ccc(Cl)cc4)cc23)c1F [PLX, vemurafenib] |  |  | 43.5 days
